In ChEMBL document CHEMBL5465560, “Selectivity Literature for EUbOPEN Chemogenomic Library” (2024) one finds % of control and % of inhibition data, which are given here for eight molecules.

In experiment [1] the test system is eIF-2-alpha kinase GCN2 (Homo sapiens), Q9P2K8 [S808G]. In words: Selectivity interaction (Ambit KINOMEscan and KiNATiv profiling in Jurkat cells) EUB0000090b EIF2AK4. The format is cell-based. As to conditions: at 1 µM.
Experiment [2] deals with Calcium/calmodulin-dependent protein kinase type 1G (Homo sapiens) (UniProt Q96NX5). Kind of experiment: Selectivity interaction (KinomeScan (DiscoverX)) EUB0001079a CAMK1G. As to conditions: at 1 µM.
Chain of Calcium/calmodulin-dependent protein kinase type 1G (Homo sapiens) (Q96NX5 whole entry): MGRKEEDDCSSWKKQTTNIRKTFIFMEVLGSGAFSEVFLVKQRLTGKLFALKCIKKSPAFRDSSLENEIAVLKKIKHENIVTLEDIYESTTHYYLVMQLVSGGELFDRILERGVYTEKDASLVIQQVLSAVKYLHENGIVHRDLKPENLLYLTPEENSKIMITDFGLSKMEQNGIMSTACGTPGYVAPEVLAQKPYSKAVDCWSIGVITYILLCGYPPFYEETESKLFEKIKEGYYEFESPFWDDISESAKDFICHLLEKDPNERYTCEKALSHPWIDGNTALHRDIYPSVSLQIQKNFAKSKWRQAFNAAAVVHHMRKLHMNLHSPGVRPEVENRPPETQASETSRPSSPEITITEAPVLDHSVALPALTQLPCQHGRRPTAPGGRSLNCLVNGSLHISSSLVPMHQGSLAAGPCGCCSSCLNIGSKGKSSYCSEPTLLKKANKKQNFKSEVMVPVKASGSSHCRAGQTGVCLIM
In experiment [3] the target is Serine/threonine-protein kinase Nek4 (Homo sapiens) (UniProt P51957). Kind of experiment: Selectivity interaction (KinomeScan (DiscoverX)) EUB0001079a NEK4. The conditions noted are these: at 1 µM.
The target of experiment [4] is Mitogen-activated protein kinase kinase kinase 1 (Homo sapiens, UniProt Q13233). Kind of experiment: Selectivity interaction (KinomeScan (DiscoverX)) EUB0000655a MAP3K1. As to conditions: at 10 µM.
Chain of Mitogen-activated protein kinase kinase kinase 1 (Q13233 whole entry): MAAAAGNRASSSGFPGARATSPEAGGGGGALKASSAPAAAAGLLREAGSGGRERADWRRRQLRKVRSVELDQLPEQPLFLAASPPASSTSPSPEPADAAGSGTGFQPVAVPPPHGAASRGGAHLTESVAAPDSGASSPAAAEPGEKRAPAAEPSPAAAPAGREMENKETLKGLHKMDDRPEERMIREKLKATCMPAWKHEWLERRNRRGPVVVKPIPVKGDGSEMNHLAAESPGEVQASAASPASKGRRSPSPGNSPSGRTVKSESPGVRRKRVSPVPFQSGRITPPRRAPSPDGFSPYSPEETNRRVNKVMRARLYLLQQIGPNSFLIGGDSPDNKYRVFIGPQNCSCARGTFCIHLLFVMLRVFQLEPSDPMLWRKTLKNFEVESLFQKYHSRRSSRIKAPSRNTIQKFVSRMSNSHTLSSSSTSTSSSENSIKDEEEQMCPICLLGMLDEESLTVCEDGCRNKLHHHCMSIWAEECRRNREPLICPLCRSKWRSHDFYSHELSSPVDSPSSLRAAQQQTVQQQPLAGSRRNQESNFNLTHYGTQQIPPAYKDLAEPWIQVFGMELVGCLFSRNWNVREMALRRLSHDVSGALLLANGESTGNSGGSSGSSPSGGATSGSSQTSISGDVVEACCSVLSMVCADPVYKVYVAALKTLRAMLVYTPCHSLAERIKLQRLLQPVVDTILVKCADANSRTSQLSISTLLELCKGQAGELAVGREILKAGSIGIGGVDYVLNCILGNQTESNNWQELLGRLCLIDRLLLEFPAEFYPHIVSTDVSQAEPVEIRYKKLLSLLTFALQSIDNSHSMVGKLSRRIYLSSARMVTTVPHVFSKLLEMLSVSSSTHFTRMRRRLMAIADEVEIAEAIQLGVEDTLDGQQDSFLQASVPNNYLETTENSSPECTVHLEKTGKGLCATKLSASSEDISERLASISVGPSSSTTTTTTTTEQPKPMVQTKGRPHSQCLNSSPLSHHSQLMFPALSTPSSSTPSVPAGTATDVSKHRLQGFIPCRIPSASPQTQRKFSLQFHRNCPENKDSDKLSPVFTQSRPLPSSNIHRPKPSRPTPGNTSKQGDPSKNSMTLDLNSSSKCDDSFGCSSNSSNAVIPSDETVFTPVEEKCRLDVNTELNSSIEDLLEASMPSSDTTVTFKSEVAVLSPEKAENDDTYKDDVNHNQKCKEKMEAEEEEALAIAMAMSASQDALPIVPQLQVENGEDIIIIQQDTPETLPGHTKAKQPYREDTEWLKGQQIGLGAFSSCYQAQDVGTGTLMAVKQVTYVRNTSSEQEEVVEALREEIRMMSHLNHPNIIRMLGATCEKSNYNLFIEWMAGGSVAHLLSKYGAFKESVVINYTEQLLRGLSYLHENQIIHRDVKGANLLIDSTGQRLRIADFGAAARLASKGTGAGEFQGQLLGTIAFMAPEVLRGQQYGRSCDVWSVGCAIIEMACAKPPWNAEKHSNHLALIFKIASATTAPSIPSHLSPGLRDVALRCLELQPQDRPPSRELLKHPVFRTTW
The target of experiment [5] is Macrophage-stimulating protein receptor (Homo sapiens, UniProt Q04912). In words: Selectivity interaction (KinomeScan (DiscoverX)) EUB0000655a MST1R. The conditions noted are these: at 10 µM.
Chain of Macrophage-stimulating protein receptor (Q04912 25-304 limits assumed): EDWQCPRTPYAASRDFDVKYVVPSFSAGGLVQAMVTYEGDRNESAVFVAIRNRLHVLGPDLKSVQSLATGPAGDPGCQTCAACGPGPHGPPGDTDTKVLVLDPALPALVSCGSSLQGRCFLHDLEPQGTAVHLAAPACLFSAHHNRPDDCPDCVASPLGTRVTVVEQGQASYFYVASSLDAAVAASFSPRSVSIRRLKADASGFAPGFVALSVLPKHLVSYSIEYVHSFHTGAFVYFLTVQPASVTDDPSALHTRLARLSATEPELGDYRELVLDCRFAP
Chain of Macrophage-stimulating protein receptor (Q04912 310-1400 limits assumed): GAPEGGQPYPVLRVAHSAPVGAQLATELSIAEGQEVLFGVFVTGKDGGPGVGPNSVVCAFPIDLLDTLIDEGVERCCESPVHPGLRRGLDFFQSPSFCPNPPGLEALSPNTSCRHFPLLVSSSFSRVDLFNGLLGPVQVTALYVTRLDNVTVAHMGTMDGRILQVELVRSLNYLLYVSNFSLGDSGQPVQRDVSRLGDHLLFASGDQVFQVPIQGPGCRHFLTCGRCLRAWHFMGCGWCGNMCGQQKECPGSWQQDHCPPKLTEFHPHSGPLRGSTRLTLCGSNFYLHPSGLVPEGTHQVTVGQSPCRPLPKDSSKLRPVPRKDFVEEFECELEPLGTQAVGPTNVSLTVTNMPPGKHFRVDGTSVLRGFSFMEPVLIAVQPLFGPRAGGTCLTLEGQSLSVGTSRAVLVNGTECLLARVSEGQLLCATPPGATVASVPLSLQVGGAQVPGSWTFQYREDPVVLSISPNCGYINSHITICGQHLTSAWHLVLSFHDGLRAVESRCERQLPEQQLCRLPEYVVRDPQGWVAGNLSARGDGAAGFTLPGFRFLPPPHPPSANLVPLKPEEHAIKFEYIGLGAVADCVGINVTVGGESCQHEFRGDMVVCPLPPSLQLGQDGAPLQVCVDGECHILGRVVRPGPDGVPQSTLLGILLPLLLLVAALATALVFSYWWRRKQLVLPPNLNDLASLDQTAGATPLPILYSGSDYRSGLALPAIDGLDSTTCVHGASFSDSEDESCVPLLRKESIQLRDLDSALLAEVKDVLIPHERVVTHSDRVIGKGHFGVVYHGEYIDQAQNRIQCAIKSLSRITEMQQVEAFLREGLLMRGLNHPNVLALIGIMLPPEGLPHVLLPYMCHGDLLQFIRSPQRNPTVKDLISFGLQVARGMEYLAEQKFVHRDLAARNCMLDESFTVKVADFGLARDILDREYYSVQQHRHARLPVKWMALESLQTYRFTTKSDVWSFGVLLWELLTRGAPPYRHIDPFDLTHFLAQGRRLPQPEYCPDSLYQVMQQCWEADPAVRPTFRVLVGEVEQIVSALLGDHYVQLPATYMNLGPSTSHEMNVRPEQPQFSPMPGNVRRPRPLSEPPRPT
Experiment [6] concerns the target T1, MAP kinase-activated protein kinase 5 (Homo sapiens) (UniProt Q8IW41).
T1 sequence (whole entry): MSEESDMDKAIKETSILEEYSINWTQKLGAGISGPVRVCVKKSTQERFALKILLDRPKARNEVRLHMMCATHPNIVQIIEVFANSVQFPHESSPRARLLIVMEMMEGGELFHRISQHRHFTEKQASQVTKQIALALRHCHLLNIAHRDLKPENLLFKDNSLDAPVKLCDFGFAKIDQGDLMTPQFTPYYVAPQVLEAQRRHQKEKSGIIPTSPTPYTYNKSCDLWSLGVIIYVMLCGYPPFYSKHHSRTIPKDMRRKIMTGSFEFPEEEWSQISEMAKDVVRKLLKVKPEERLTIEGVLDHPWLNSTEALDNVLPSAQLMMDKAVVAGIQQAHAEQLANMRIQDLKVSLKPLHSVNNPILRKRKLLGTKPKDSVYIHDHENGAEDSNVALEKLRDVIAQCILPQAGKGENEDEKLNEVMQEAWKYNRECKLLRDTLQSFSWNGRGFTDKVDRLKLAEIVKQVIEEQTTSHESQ
Kind of experiment: Selectivity interaction (Kinase panel (Eurofins)) EUB0001564a MAPKAPK5. The conditions noted are these: at 1 µM.

For experiment [7], the target named is T2, Serine/threonine-protein kinase Sgk3 (Homo sapiens) (UniProt Q96BR1).
T2 sequence (whole entry): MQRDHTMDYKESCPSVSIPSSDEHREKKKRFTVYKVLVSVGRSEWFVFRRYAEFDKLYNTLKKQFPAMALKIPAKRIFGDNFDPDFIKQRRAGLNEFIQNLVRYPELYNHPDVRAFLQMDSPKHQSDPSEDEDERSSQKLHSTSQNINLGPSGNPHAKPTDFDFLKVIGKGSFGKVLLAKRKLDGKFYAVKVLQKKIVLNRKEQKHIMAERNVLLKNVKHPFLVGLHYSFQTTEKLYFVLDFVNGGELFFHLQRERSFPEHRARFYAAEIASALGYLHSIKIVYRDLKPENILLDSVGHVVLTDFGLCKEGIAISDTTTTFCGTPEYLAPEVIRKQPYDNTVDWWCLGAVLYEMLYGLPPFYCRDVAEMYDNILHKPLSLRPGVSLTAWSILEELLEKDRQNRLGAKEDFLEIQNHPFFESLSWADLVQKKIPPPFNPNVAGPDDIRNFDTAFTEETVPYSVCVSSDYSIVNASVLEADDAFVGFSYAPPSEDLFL
In words: Selectivity interaction (KinomeScan (DiscoverX)) EUB0000695a SGK3. The conditions noted are these: at 100 nM.

Experiment [8] concerns the target T3, Tyrosine-protein kinase Tec (Homo sapiens) (UniProt P42680).
T3 sequence (whole entry): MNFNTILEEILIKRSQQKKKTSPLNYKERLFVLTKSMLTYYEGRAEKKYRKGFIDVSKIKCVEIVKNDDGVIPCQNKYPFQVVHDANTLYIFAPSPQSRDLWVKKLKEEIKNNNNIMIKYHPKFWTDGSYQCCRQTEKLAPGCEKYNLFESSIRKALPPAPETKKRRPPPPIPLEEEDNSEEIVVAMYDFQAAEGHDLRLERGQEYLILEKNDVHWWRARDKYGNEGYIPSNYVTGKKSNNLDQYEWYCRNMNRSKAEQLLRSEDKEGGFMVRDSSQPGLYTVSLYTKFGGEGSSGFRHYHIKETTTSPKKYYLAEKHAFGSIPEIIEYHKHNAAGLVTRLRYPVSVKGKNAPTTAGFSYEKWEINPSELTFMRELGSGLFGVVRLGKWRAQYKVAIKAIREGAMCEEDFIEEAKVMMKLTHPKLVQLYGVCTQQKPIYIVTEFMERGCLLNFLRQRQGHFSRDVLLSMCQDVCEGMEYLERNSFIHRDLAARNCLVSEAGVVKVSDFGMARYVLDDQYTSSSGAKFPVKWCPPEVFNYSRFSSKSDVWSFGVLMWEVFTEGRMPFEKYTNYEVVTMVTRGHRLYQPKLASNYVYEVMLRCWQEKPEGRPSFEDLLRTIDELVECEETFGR
In words: Selectivity interaction (KinomeScan (DiscoverX)) EUB0000695a TEC. As to conditions: at 100 nM.

Experiment [9] deals with CDK4/Cyclin D3 (Homo sapiens) (UniProt P11802+P30281). In words: (§1) Selectivity interaction (KinomeScan (DiscoverX)) EUB0000607a CDK4. The format is protein-complex assay. The conditions noted are these: at 10 µM.
For experiment [10], the target named is Cyclin-dependent kinase 4/cyclin D1 (Homo sapiens) (UniProt P11802+P24385). Described as §1. The experiment is classed as protein-complex assay. As to conditions: at 10 µM.
For experiment [11], the target named is Mitogen-activated protein kinase kinase kinase 11 (Homo sapiens) (UniProt Q16584). In words: Selectivity interaction (ActivX KiNativ screen (kinase selectivity in THP-1 cell lysates)) EUB0000639a MAP3K11. The format is subcellular. The conditions noted are these: lysate, at 0.01 µM.
Chain of Mitogen-activated protein kinase kinase kinase 11 (Homo sapiens) (Q16584 whole entry, looked up): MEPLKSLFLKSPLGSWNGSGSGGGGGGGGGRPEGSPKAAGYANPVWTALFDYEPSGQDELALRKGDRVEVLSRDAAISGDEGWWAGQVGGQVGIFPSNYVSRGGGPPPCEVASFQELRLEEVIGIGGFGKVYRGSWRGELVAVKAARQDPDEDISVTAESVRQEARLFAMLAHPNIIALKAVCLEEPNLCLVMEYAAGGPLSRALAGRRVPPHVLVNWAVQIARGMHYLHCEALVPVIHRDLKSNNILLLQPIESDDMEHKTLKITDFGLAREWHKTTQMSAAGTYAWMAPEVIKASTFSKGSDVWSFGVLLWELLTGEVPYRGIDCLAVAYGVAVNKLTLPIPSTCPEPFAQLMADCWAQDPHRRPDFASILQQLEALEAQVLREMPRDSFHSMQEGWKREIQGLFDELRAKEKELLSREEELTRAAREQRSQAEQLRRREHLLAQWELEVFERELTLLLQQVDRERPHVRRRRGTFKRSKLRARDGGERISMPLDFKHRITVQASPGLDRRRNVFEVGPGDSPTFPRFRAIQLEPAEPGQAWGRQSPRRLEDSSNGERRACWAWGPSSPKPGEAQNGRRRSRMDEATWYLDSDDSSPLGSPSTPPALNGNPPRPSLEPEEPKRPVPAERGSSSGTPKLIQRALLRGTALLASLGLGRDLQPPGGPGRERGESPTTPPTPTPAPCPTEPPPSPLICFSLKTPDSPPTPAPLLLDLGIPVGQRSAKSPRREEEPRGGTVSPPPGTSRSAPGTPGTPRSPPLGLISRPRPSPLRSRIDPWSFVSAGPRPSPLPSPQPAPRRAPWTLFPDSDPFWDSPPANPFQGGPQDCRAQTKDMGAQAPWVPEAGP
Experiment [12] addresses T3, Tyrosine-protein kinase Tec (Homo sapiens). Kind of experiment: Selectivity interaction (ActivX KiNativ screen (kinase selectivity in THP-1 cell lysates)) EUB0000639a TEC. The experiment is classed as subcellular. As to conditions: lysate, at 0.01 µM.
Experiment [13] has as its target T4, Serine/threonine-protein kinase ULK3 (Homo sapiens) (UniProt Q6PHR2).
T4 sequence (whole entry): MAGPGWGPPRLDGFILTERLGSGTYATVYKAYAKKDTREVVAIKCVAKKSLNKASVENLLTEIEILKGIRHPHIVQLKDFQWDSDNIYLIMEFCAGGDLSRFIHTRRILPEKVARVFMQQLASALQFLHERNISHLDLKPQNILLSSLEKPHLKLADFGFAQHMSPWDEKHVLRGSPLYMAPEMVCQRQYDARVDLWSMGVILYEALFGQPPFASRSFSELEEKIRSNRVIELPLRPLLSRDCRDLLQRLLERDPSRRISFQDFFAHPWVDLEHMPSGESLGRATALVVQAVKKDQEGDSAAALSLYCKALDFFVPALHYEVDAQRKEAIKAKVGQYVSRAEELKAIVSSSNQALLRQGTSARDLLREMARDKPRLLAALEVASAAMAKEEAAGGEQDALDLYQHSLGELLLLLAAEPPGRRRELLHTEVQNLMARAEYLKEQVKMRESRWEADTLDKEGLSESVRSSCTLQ
Kind of experiment: Selectivity interaction (ActivX KiNativ screen (kinase selectivity in THP-1 cell lysates)) EUB0000639a ULK3. The format is subcellular. As to conditions: lysate, at 0.01 µM.

Experiment [14] addresses Serine/threonine-protein kinase SIK1 (Homo sapiens) (UniProt P57059). In words: Selectivity interaction (KinomeScan (DiscoverX)) EUB0000618a SIK1. As to conditions: at 10 µM.

Chain of Serine/threonine-protein kinase SIK1 (Homo sapiens) (P57059 whole entry): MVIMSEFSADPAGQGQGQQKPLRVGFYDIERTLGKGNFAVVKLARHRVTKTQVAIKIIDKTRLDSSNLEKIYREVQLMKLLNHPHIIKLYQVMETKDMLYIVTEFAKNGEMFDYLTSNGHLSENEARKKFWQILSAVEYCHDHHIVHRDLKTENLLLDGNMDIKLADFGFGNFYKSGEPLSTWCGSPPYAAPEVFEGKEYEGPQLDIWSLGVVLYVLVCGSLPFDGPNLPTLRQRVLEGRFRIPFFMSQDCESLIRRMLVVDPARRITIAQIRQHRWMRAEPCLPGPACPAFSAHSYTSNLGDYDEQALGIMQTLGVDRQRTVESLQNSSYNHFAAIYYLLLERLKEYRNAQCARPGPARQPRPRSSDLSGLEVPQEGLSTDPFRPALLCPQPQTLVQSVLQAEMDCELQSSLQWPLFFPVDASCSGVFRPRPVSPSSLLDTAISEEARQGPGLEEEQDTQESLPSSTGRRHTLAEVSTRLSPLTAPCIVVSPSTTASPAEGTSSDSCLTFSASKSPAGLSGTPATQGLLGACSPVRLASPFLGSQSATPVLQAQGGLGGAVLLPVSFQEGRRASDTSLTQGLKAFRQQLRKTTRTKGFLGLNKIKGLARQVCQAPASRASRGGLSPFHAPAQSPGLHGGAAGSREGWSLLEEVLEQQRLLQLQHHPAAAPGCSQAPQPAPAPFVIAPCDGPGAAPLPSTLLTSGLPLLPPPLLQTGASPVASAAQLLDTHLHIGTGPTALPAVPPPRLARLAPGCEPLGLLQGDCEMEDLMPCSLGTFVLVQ

In turn, `CN(C)C/C=C/C(=O)Nc1ccc(C(=O)N2CCCC(Nc3ncc(Cl)c(-c4c[nH]c5ccccc45)n3)C2)cc1` (centres undefined) came in with a % of control in experiment [1] of 64%.

For `Nc1cnc(N2CCc3cc(S(=O)(=O)Nc4c(F)cc(Cl)cc4F)cc(N4CCCC4=O)c32)nc1` [TP-020n], the % of control in experiment [2] turned out to be 100%; in experiment [3], 97%. For `CN(C)CCOc1ccc(-c2nc(-c3ccncc3)c(-c3ccc4c(c3)CC/C4=N\O)[nH]2)cc1`, the results for the % of control in [4] and in experiment [5] were 72% and 100%, respectively. Turning to `CC[C@@H](Nc1c(C#N)c(-c2ccc(-c3cccc(C)c3F)cc2)nc2cnccc12)C(=O)O` [BAY-091], in [6], the % of inhibition stood at 23.6%. Turning to `Cc1cc(F)c(C(=O)Nc2cccc(-c3nncn3C(C)C)n2)cc1-n1cnc(C2CC2)c1`, the % of control in [7] and in experiment [8] was 100% each time. As for `CNC(=O)Nc1ccc(-c2nc(N3CC4CCC(C3)O4)c3cnn(C4CCC5(CC4)OCCO5)c3n2)cc1`, the % of control in experiment [9] came out at 92%; in [10] it was 90%. Turning to `CC[C@@H]1[C@H](F)C(=O)N[C@@H]1COc1nccc2cc(C(N)=O)c(OC)cc12` [ZIMLOVISERTIB], the % of inhibition was 4.9% in experiment [11], -72.2% in [12] and -8.9% in [13]. In the case of `O[C@H]1CC[C@H](Nc2ncc3nc(Nc4c(F)cc(F)cc4F)n([C@H]4CCOC4)c3n2)CC1`, the % of control in experiment [14] was 100%.
